Assay results: US5616712A, “Acetylenes disubstituted with a phenyl or heteroaryl group and a 2-thio-1,2,3,4-tetrahdroquinolinyl, 2-alkylthio-3,4-dihydroquinolinyl or 2-alkoxy-3,4-dihydroquinolinyl group having retinoid-like biological activity” (Allergan, priority 1995, dated 1997)

Columns and labels:
[1] = tested on: ornithine decarboxylase (ODC); assay: Inhibition of TPA induction of ornithine decarboxylase (ODC) (Table 2); type: cell-based; settings: concentration which results in 80 per cent inhibition of the ODC induction activity by TPA
Source text: The retinoid-like activity of these compounds is confirmed through the classic measure of retinoic acid activity involving the effects of retinoic acid on ornithine decarboxylase. The original work on the correlation between retinoic acid and decrease in cell proliferation was done by Verma & Boutwell, Cancer Research, 1977, 37,2196-2201. That reference discloses that ornithine decarboxylase (ODC) activity increased precedent to polyamine biosynthesis. It has been established elsewhere that increases. in polyamine synthesis can be correlated or associated with cellular proliferation. Thus, if ODC activity could be inhibited, cell hyperproliferation could be modulated. […] IC80 is that concentration of the test compound (expresed in nanomolar (nmol)) which results in 80 per cent inhibition of the ODC induction activity by TPA.

[2] = tested on: ornithine decarboxylase (ODC); settings: qualitative; cited from earlier work

| Structure (SMILES) | IC80 [1] | other results |
| --- | --- | --- |
| CCCCCCCSC1=Nc2ccc(C#Cc3ccc(C(=O)OCC)cc3)cc2C(C)(C)C1 [Compound 10, Ethyl 4-[(4,4-dimethyl-2-heptylthio-3,4-dihydro-6-quinolinyl)ethynyl]benzoate] | > 60 nM | – |
| CC1=C(/C=C/C(C)=C/C=C/C(C)=C/C(=O)O)C(C)(C)CCC1 [Retinoic acid] | – | inhibition of TPA induction of ODC activity [2]: inhibits this induction of ODC activity by TPA |
| CCOC(=O)c1ccc(C#Cc2ccc3c(c2)C(C)(C)CC(OC(C)C)=N3)cc1 [Compound 6, Ethyl 4-[(4,4-dimethyl-2-isopropoxy-3,4-dihydro-6-quinolinyl)ethynyl]benzoate] | > 100 nM | – |
| CCOC(=O)c1ccc(C#Cc2ccc3c(c2)C(C)(C)CC(=O)N3C(C)C)cc1 [Compound 5] | 6.4 nM | – |
| CCOC(=O)c1ccc(C#Cc2ccc3c(c2)C(C)(C)CC(=S)N3C(C)C)cc1 [Compound 7, Ethyl 4-[(4,4-dimethyl-2-thio-1,2,3,4-tetrahydro-1-iso-propyl-6-quinolinyl)ethynyl]benzoate] | 5.5 nM | – |
| CCOC(=O)c1ccc(C#Cc2ccc3c(c2)C(C)(C)CC(SC)=N3)cc1 [Compound 9, Ethyl 4-[(4,4-dimethyl-2-methylthio-3,4-dihydro-6-quinolinyl)ethynyl]benzoate] | 29 nM | – |
| CCOC(=O)c1ccc(C#Cc2ccc3c(c2)C(C)(C)CC(=S)N3)cc1 [Compound 8, Ethyl 4-[(4,4-dimethyl-2-thio-1,2,3,4-tetrahydro-6quinolinyl)ethynyl]benzoate] | 54 nM | – |
| CCCCCCCCCCCCCC(=O)O[C@@H]1[C@@H](C)[C@@]2(O)[C@@H](C=C(CO)C[C@]3(O)C(=O)C(C)=C[C@@H]23)[C@@H]2C(C)(C)[C@]12OC(C)=O [12-0-tetradecanoylphorbol-13-acetate] | – | induction of ODC activity [2]: induces ODC activity |
